Data: patent US8178324B2, “Deracemisation of amines” (Ingenza Limited, priority 2002, dated 2012)
Entries after “also recorded” stand apart in the source; their conditions may differ. Where two headings read alike, the source gives them in different places.

Columns and labels:
[1] = target: T1, N336S mutant A. niger monoamine oxidase (Aspergillus niger, UniProt P46882, A300V/K348M/L304V/N336S/R450G); type: biochemical; set-up: key to Relative Rate (symbol): *: No measurable rate; conditions: for Relative Rate: relative to (S)-α Methylbenzylamine = 1
T1 construct: made in house; host or cells: E. coli BL21(DE3), pET16b
T1 sequence (P46882 whole entry A300V/L304V/N336S/K348M/R450G): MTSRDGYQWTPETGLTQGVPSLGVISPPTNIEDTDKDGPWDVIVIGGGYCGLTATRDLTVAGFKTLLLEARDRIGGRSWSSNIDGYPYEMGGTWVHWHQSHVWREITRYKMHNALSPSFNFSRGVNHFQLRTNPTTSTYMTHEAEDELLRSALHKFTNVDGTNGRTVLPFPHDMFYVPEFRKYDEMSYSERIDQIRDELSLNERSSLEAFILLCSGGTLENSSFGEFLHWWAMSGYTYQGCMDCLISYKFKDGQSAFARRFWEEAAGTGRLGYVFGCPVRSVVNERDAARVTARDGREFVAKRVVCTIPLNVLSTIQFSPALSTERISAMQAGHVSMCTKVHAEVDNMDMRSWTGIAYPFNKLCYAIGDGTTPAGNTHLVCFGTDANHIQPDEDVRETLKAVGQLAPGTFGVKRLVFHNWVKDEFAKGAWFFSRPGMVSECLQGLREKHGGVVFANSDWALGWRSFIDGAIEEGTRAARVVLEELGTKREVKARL
Method: (§1) 5 ml phosphate buffer (1 M, pH 7.6)
(§2) 500 μl 2,4,6-tribromo-3-hydroxybenzoic acid (2% in DMSO)
(§3) 37.5 μl 4-aminoantipyrine (1.5 M) • 30 μl amine substrate (final concentration 0.015-5 mM) • 44.4 ml water
(§4) Assay Conditions: • 990 μl assay mixture • 5 μl horse radish peroxidase (1 mg·ml^−1) • 10 μl enzyme
(§5) The spectrophotometer was blanked against assay mixture and HRP. Enzyme was added and the absorbance at 500 nm measured at 3 s intervals for a 10 minute period.
The activity of the mutant enzyme described above was studied in relation to a variety of amine substrates. […]

[2] = target: T2, wild-type A. niger MAO-N enzyme (Aspergillus niger, UniProt P46882, A300V/K348M/L304V/R450G); assay: Colorimetric hydrogen peroxide (HRP/TBHBA/4-aminoantipyrine) amine oxidase assay, purified wild-type enzyme; type: biochemical; conditions: for kcat, Wild-type Enzyme: purified wild-type enzyme, active enzyme from FAD absorbance at 458 nm
T2 construct: made in house; host or cells: E. coli BL21(DE3), pET16b
T2 sequence (P46882 whole entry A300V/L304V/K348M/R450G): as the sequence (P46882 whole entry A300V/L304V/N336S/K348M/R450G) above, with S336N counted along it
Method: (§6) The wild-type enzyme was also purified by the same protocol and the two enzymes compared for substrate specificity and enantioselectivity.
as §1, §2, §3, §4, §5
(§7) The Km values were calculated using ‘KaleidaGraph for Windows’ (Synergy Software). For calculation of the kcat, the active enzyme concentration was determined by estimating the FAD content from the absorbance at 458 nm using an extinction coefficient of 11 mM^−1 cm^−1 (see ref 12).

[3] = target: T3, mutant A. niger monoamine oxidase (N336S) (Aspergillus niger, UniProt P46882, A300V/K348M/L304V/N336S/R450G); assay: Colorimetric hydrogen peroxide amine oxidase assay, purified mutant enzyme (N336S); type: biochemical
T3 construct: made in house; host or cells: E. coli BL21(DE3), pET16b
T3 sequence (P46882 whole entry A300V/L304V/N336S/K348M/R450G): as the sequence (P46882 whole entry A300V/L304V/N336S/K348M/R450G) above
Method: as §6
The mutated gene was also sequenced and the sequence is shown in SEQ ID NO: 2. There was a single amino acid change from the wild-type enzyme with serine replacing asparagine at position 336.
LB medium (6×300 ml) containing ampicillin (100 μg·ml^−1) in 1 L baffled flasks was inoculated with a single colony of monoamine oxidase mutant from an LB agar plate. Cultures were incubated at 30° C. for 22 hours (OD600˜3.6) then harvested and washed with phosphate buffer (50 mM, pH 8) to yield a yellow-brown pellet (11.2 g).
The pellet was resuspended in Tris/HCl buffer (25 mM, pH 7.8, 30 ml) and sonicated on ice (30 s on, 30 s off for 10 minutes). The suspension was then centrifuged (20,000 rpm, 4° C.) until clear supernatant was obtained and the supernatant dialysed against Tris/HCl buffer (25 mM, pH 7.8). The cell free extract was filtered through 0.45 μm sterile membrane and chromatographed on a QSepharose anion exchange column. Fractions were assayed using colorimetric hydrogen peroxide based assay and active fractions were stored at −80° C. The active fraction has a protein content of 1 mg·ml^−1, and a specific activity of 0.193 U·mg^−1 against amylamine.
as §1, §2, §3, §4, §5, §7

[4] = target: T4, mutant amine oxidase (N336S) (Aspergillus niger, UniProt P46882, A300V/K348M/L304V/N336S/R450G); assay: Chiral HPLC (Chiralcel CrownPak CR+) check of oxidation by the mutant; type: biochemical; conditions: after 24 h
T4 construct: made in house; host or cells: E. coli BL21(DE3), pET16b
T4 sequence (P46882 whole entry A300V/L304V/N336S/K348M/R450G): as above
Method: The data reveal that the activity of the mutant amine oxidase towards L-AMBA (kcat=8.0 min-1) is 47 fold higher than the wild-type (kcat=0.17 min-1). Moreover the selectivity of the mutant for the L-enantiomer versus D-AMBA (ca. 100:1) has also been increased relative to the wild type enzyme (ca. 17:1). Thus the outcome of the in vitro evolution experiments has been to simultaneously improve both the enantioselectivity and catalytic activity of the enzyme. For comparison, the activity towards the best substrate for the wild-type enzyme, namely amylamine, and also benzylamine, is presented.

[5] = target: T5, MAO mutant N336S (Aspergillus niger, UniProt P46882, A300V/K348M/L304V/N336S/R450G); assay: Stereoinversion reaction with MAO mutant N336S and ammonia-borane, HPLC monitoring; type: biochemical; conditions: ammonia-borane, 30° C., 24 hours
T5 construct: made in house; host or cells: E. coli BL21(DE3), pET16b
T5 sequence (P46882 whole entry A300V/L304V/N336S/K348M/R450G): as above
Method: More Specifically, MAO mutant N336S (100 μl of 0.193 U·ml^−1=0.02 U) was added to a solution of L-AMBA (0.13 μl, final concentration=0.4 mM) and ammonia-borane complex (10 μl of 4M solution, final concentration=80 mM, 200 eq) in phosphate buffer (400 μl, 20 mM, pH8). A 10 μl aliquot was diluted in 990 μl perchloric acid, pH 1.5 and analysed by HPLC. The reaction mixture was incubated at 30° C. and the reaction monitored by HPLC at regular intervals until no further reaction was observed.
Analytical conditions: Column=Chiralcel CrownPak CR+ • Mobile phase=100% perchloric acid, pH 1.5 • Flow rate=0.8 ml·min^−1 • Detection=200 nm • Temperature=25° C. • r.t. (L-AMBA)=12.8 min • r.t. (D-AMBA)=16.5 min

[6] = target: Type II monoamine oxidase from Aspergillus niger (MAO-N) (Aspergillus niger, UniProt P46882, A300V/K348M/L304V/R450G); conditions: literature refs 10-12; cited from earlier work
Sequence of Type II monoamine oxidase from Aspergillus niger (MAO-N) (P46882 whole entry A300V/L304V/K348M/R450G): as the sequence (P46882 whole entry A300V/L304V/N336S/K348M/R450G) above, with S336N counted along it

SMILES	Relative Rate [1]	Relative Rate (symbol) [1]	further results
CC(N)c1ccccc1 [L-AMBA, L-α-methylbenzylamine]	1		activity of the wild-type A. niger MAO-N enzyme [2]: very low, but measurable activity; kcat, Wild-type Enzyme [2]: 0.17 min⁻¹; activity (kcat) of the mutant relative to the wild-type ([3]; mutant kcat versus wild-type kcat): 47 fold; Km ([3]; purified N336S mutant): 400 µM; kcat, Mutant Enzyme ([3]; purified N336S mutant): 8.0 min⁻¹; oxidation by the mutant seen by chiral HPLC [4]: complete oxidation
CC(C)[C@@H](C)N [(R)-3-Methyl-2-butylamine]		*	
CC(N)c1ccccc1 [D-AMBA, α-methylbenzylamine]		*	activity of the wild-type A. niger MAO-N enzyme ([2]; listed as D-enantiomer): even slower oxidation; kcat, Wild-type Enzyme [2]: 0.01 min⁻¹; conversion under stereoinversion conditions [5]: no conversion; also recorded: no reaction was observed; kcat, Mutant Enzyme ([3]; purified N336S mutant): 0.08 min⁻¹; oxidation by the mutant seen by chiral HPLC [4]: no detectable conversion
NCc1ccccc1 [benzylamine]			kcat, Wild-type Enzyme [2]: 371 min⁻¹; reported activity of MAO-N [6]: active, albeit at a lower rate; kcat, Mutant Enzyme ([3]; purified N336S mutant): 196 min⁻¹
COc1ccc([C@H](C)N)cc1 [(S)-1-4-Methoxyphenylethylamine]	0.81		
COc1ccc([C@@H](C)N)cc1 [(R)-1-4-Methoxyphenylethylamine]	0.13		
CC(C)CC(C)N (stereo not drawn) [1,3-Dimethylbutylamine]	1.8		
CC(N)c1ccc(Br)cc1 (racemic) [(rac)-4-Bromo-α-phenylethylamine]		*	
C[C@H](N)C(C)(C)C [(S)-3-3-Dimethyl-2-butylamine]	1.4		
CCCCCCCN [N-heptylamine]	12.1		
CC(C)[C@H](C)N [(S)-3-Methyl-2-butylamine]	5.4		
C[C@H](N)c1ccc([N+](=O)[O-])cc1 [(S)-α-Methyl-4-nitrobenzylamine]	0.91		
CC1CCCCC1N (stereo not drawn) [2-Methylcyclohexylamine]	0.43		
CCCCCCN [Hexylamine]	18.6		
CC(NC(C)c1ccccc1)c1ccccc1 (stereo not drawn) [Bis(α-methyl)benzylamine]		*	
C[C@@H](N)c1ccc(Br)cc1 [(R)-4-Bromo-α-phenylethylamine]		*	
CCCCCN [amylamine]	25.2		kcat, Wild-type Enzyme [2]: 1000 min⁻¹; reported activity of MAO-N [6]: high activity
CC(N)c1ccccc1 (racemic) [(rac)-α Methylbenzylamine]		*	
CCCCN [butylamine]			reported activity of MAO-N [6]: high activity
Cc1ccc([C@@H](C)N)cc1		*	
C[C@@H](N)c1ccc([N+](=O)[O-])cc1 [(R)-α-Methyl-4-nitrobenzylamine]	0.06		
C[C@H](N)c1ccc(Br)cc1 [(S)-4-Bromo-α-phenylethylamine]	0.24		
C[C@@H](N)C(C)(C)C [(R)-3-3-Dimethyl-2-butylamine]		*	
Cc1ccc([C@H](C)N)cc1	0.28		
